The term MIC denotes the smallest concentration in the dilution series that meets the test's criterion for growth inhibition. As a reminder, the IC50 is the point on the concentration scale where inhibition reaches its midpoint. A word on the inhibition: it is how much of the control response was suppressed. Usually Ki stands for a dissociation constant, usually derived from enzyme kinetics or from competition with a known ligand.

Here are results for 5 compounds from ChEMBL document CHEMBL4382202, “1-(2-Hydroxybenzoyl)-thiosemicarbazides are promising antimicrobial agents targeting d-alanine-d-alanine ligase in bacterio” (Eur J Med Chem, 2018).

The test system of data set [1] is Staphylococcus aureus. The experiment in a line: Antibacterial activity against hospital-acquired methicillin and vacomycin resistant Staphylococcus aureus VRS-1 after 18 to 24 hrs by microdilution assay. Format: functional. (Dilution methods test growth across graded concentrations, often in twofold steps.)
Data set [2] has as its system Enterococcus faecalis. Kind of data set: Antibacterial activity against vancomycin-resistant Enterococcus faecalis BM 4390 after 18 to 24 hrs by microdilution assay. Format: functional.
Data set [3] deals with Enterococcus faecalis. Kind of data set: Antibacterial activity against vancomycin-resistant Enterococcus faecalis BM 4575 clinical isolate after 18 to 24 hrs by microdilution assay. Format: functional.
The test system of data set [4] is Staphylococcus aureus. The experiment in a line: Antibacterial activity against methicillin and vancomycin intermediate resistant Staphylococcus aureus MU50 after 18 to 24 hrs by microdilution assay. It is filed as functional.
For data set [5], the target named is T1, D-alanine--D-alanine ligase (Enterococcus faecalis (strain ATCC 700802 / V583), UniProt Q47758).
T1 sequence (Q47758 whole entry): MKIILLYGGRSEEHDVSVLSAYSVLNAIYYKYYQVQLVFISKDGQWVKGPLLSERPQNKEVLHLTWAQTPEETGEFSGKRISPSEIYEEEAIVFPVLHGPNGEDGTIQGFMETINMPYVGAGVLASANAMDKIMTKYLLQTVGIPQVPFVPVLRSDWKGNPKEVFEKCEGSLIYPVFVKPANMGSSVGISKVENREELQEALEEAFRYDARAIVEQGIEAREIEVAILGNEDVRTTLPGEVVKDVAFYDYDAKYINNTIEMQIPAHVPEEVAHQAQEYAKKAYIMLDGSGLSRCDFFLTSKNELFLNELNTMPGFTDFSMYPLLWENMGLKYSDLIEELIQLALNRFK
The experiment in a line: Inhibition of Enterococcus faecalis JH2-2 C-terminal 6His-tagged DdlB expressed in Escherichia coli LMG194 preincubated for 30 mins followed by substrate addition and measured after 20 mins by Biomol Green reagent assay.

Data set [6] concerns Staphylococcus aureus. Kind of data set: Antibacterial activity against hospital-acquired methicillin/ciprofloxacin/moxifloxacin resistant Staphylococcus aureus SA 481 after 18 to 24 hrs by microdilution assay. It is filed as functional.
Data set [7] has as its system Staphylococcus aureus. The experiment in a line: Antibacterial activity against Staphylococcus aureus ATCC 25923 after 18 to 24 hrs by microdilution assay. It is filed as functional.
In data set [8] the test system is Staphylococcus aureus. The experiment in a line: Antibacterial activity against methicillin and linezolid resistant Staphylococcus aureus NRS 119 clinical isolate after 18 to 24 hrs by microdilution assay. Format: functional.
The test system of data set [9] is Enterococcus faecalis. The experiment in a line: Antibacterial activity against Enterococcus faecalis ATCC 29212 after 18 to 24 hrs by microdilution assay. Format: functional.
In data set [10] the test system is Enterococcus faecalis. The experiment in a line: Antibacterial activity against vancomycin-resistant Enterococcus faecalis JH2-2::C1 after 18 to 24 hrs by microdilution assay. It is filed as functional.
The subject of data set [11] is Staphylococcus aureus. Kind of data set: Antibacterial activity against community-acquired methicillin and erythromycin resistant Staphylococcus aureus SA 325 after 18 to 24 hrs by microdilution assay. Format: functional.
Data set [12] can be described thus: Inhibition of Bacillus cereus beta-lactamase using nitrocefin as substrate preincubated for 15 mins followed by substrate addition and measured after 60 mins by spectrophotometric analysis.
The test system of data set [13] is Staphylococcus aureus. Kind of data set: Bactericidal activity against Staphylococcus aureus ATCC 25923 assessed as bacterial cell killing level at 0.1 mM after 24 hrs by time kill assay. It is filed as functional.
The next data set relates to THP-1. The experiment in a line: Cytotoxicity against human THP1 cells assessed as decrease in cell viability at 1 to 5 times MIC after 24 hrs by trypan blue exclusion assay relative to control. Conditions: thp-1, 24 h. It is filed as cell-based.
In data set [14] the target is T2, MAO-A (amine oxidase [flavin-containing] A) (Homo sapiens, UniProt P21397).
T2 sequence (P21397 whole entry): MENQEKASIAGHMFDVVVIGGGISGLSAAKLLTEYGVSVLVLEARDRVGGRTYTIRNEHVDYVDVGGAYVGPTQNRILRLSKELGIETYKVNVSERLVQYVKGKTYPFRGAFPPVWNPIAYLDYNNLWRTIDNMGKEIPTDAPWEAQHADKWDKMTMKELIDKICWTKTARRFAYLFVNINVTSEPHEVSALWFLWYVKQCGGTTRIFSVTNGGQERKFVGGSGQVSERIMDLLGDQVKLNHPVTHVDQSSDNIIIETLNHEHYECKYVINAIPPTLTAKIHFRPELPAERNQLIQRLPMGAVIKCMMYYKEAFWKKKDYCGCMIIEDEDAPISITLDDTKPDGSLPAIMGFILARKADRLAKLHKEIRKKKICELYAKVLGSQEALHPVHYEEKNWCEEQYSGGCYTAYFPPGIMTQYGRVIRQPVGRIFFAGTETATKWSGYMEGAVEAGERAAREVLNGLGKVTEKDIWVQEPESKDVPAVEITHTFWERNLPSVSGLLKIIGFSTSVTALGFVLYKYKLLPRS
Kind of data set: Inhibition of human MAOA at 10 uM using kynuramine as substrate after 20 mins by spectrophotometric analysis relative to control. Conditions: probe kynuramine.

A further data set addresses hERG (KCNH2) (Homo sapiens, UniProt Q12809). Kind of data set: Displacement of [3H]-Dofetilide from recombinant human ERG at 10 uM after 60 mins by scintillation counting analysis relative to control. Conditions: probe [3H]-dofetilide. In general terms: Displacement assays read how much labelled ligand stays bound in the presence of the test substance.
The target of data set [15] is Voltage-gated inwardly rectifying potassium channel KCNH2 (Homo sapiens, UniProt Q12809). The experiment in a line: Displacement of [3H]-Dofetilide from recombinant human ERG after 60 mins by scintillation counting analysis.
Data set [16] has as its target Secretory phospholipase A2. Kind of data set: Inhibition of human sPLA2. Format: protein assay.
Data set [17] deals with T1, D-alanine--D-alanine ligase. Kind of data set: Inhibition of Enterococcus faecalis Ddl.
Data set [18] in a line: Inhibition of 6His-tagged Staphylococcus aureus Ddl expressed in Escherichia coli M15 (pREP4) using ATP or d-alanine as substrate after 20 mins.
Data set [19] in a line: Inhibition of full-length 6His-tagged Mycobacterium tuberculosis H37Rv Ddl expressed in Escherichia coli BL21(DE3)pLysS by UV-Vis spectrophotometric analysis.
Data set [20] concerns Mycobacterium tuberculosis. Kind of data set: Antitubercular activity against Mycobacterium tuberculosis H37Rv. It is filed as functional.

Converted amounts (≈) assume the structure as drawn.

hERG (KCNH2), sequence (Q12809 whole entry): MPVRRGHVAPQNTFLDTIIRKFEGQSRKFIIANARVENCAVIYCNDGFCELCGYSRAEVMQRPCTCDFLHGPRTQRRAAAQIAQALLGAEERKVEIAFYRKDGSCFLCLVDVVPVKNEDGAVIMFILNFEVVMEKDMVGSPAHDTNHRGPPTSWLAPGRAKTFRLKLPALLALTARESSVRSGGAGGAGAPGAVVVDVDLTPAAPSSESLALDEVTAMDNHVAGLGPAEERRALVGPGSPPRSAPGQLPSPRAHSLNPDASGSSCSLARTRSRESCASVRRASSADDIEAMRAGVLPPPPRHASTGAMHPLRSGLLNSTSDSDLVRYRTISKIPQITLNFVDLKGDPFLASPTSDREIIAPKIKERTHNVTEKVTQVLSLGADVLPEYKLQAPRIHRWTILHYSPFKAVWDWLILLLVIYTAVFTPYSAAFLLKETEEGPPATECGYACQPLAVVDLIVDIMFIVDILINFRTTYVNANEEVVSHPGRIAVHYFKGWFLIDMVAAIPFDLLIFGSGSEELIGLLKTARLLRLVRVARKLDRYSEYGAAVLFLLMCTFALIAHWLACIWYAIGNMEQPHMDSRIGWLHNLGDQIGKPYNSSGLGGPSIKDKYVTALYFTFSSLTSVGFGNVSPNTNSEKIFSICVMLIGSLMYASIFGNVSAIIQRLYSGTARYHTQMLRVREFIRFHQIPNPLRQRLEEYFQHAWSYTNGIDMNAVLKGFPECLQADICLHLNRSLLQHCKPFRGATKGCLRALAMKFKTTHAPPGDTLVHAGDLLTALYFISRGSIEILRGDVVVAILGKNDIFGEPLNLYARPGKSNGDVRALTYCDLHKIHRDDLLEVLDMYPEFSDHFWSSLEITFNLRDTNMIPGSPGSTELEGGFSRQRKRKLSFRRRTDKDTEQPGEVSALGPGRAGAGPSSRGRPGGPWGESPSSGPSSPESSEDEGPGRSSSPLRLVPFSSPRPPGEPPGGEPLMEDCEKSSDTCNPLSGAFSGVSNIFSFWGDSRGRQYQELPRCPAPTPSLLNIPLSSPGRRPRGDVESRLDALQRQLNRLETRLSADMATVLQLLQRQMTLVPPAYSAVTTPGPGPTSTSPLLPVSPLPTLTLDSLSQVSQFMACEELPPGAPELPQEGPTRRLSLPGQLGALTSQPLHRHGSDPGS
Voltage-gated inwardly rectifying potassium channel KCNH2, sequence (Q12809 whole entry): as above

As to `O=C(NNC(=S)Nc1ccc(Cl)c(Cl)c1)c1cc2ccccc2cc1O`, the MIC in the data set on Staphylococcus aureus [1], against Enterococcus faecalis [2], against Enterococcus faecalis [3], against Staphylococcus aureus [4], in the data set with Staphylococcus aureus [6] and in the data set with Staphylococcus aureus [7] was more than 100 µM each time. Further, the MIC in the data set with Staphylococcus aureus [8] is more than 100 µM; in the data set on Enterococcus faecalis [9] it was more than 400 µM; with Enterococcus faecalis [10], more than 100 µM; against Staphylococcus aureus [11], more than 100 µM. Further, the IC50 in data set [5] amounted to 560 nM.
With `O=C(NNC(=S)Nc1ccc(Cl)c(Cl)c1)c1ccccc1O`, the MIC came out at 50 µM (≈ 17.8 µg/mL) against Staphylococcus aureus [1]; 50 µM (≈ 17.8 µg/mL) against Enterococcus faecalis [2]; 50 µM (≈ 17.8 µg/mL) with Enterococcus faecalis [3]; 100 µM (≈ 35.6 µg/mL) in the data set on Staphylococcus aureus [4]; 100 µM (≈ 35.6 µg/mL) in the data set with Staphylococcus aureus [6]; 100 µM (≈ 35.6 µg/mL) with Staphylococcus aureus [7]. In addition, the MIC was 50 µM (≈ 17.8 µg/mL) in the data set with Staphylococcus aureus [8], 50 µM (≈ 17.8 µg/mL) against Enterococcus faecalis [9], 100 µM (≈ 35.6 µg/mL) against Enterococcus faecalis [10] and 50 µM (≈ 17.8 µg/mL) against Staphylococcus aureus [11]. Moreover, the IC50 was determined as 11 nM in [12], 80 nM in [15], 20000 nM in data set [16] and 1540 nM in [5]. For the same compound, the values for the Activity with Staphylococcus aureus [13] and in the data set with THP-1 were 99% and 12 to 25%, respectively. In data set [14], this compound yielded an inhibition at 20 min, 10 µM not above 30%. Also, the inhibition at 1 h, 10 µM on hERG (KCNH2) is not above 30%.
As to `CCOC(=O)c1cc(Br)c2nc(-c3cccc(CN)c3)oc2c1`, the IC50 in data set [17] amounted to 432000 nM.
In [18], `CC(C)(CCl)C(=O)Nc1ccc(C(F)(F)F)cc1` displayed a Ki of 4000 nM.
The compound `N[C@@H]1CONC1=O` [CYCLOSERINE] had a Ki in data set [19] of 25000 nM. Further, the MIC against Staphylococcus aureus [7] was found to be 313 µM (≈ 32 µg/mL); against Enterococcus faecalis [9] it was 1250 µM (≈ 128 µg/mL); in data set [20], 50 µg/mL (≈ 490 µM).
